The record followed here is article PMC10487430, “Dual Modulator of ASIC Channels and GABAA Receptors from Thyme Alters Fear-Related Hippocampal Activity” (International Journal of Molecular Sciences, 2023).

The term EC50 denotes the midpoint of the concentration-response curve. Usually IC50 stands for the concentration that gives 50% inhibition. Lower therefore signals greater potency.

Structures are written as SMILES.

The target of assay [1] is T1, α1β2γ2 GABAA receptor (Mus musculus, UniProt P22723+P62812+P63137).
T1 construct: gene Gabra1; murine α1, β2, and γ2 GABAA subunits expressed in Xenopus laevis oocytes; with GABAA receptor β2 (Gabrb2) and γ2 (Gabrg2) subunits
T1 sequence (P62812 28-455): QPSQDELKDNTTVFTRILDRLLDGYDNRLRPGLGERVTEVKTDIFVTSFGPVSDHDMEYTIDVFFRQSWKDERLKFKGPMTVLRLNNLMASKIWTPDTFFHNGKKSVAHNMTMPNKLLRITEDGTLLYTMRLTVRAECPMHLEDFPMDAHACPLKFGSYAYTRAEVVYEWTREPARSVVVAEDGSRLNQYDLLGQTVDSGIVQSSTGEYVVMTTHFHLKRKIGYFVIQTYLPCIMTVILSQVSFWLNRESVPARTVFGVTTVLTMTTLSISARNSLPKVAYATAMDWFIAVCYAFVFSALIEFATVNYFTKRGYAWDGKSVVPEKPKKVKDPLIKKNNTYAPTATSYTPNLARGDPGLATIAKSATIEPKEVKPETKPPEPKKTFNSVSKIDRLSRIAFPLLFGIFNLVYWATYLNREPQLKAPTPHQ
T1 sequence (P63137 26-512): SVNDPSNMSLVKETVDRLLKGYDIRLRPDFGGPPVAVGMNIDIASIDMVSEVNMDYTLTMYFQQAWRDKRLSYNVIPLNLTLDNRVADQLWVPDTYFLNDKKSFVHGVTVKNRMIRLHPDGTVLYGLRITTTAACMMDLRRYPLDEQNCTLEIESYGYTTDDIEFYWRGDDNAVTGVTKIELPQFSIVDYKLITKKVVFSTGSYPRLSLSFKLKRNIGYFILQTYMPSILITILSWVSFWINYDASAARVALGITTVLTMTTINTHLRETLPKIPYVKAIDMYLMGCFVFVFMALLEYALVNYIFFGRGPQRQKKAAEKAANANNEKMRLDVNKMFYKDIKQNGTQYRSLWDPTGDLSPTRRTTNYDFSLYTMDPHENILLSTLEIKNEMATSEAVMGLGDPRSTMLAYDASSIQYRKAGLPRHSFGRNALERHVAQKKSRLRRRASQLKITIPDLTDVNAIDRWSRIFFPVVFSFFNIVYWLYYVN
T1 sequence (P22723 39-474): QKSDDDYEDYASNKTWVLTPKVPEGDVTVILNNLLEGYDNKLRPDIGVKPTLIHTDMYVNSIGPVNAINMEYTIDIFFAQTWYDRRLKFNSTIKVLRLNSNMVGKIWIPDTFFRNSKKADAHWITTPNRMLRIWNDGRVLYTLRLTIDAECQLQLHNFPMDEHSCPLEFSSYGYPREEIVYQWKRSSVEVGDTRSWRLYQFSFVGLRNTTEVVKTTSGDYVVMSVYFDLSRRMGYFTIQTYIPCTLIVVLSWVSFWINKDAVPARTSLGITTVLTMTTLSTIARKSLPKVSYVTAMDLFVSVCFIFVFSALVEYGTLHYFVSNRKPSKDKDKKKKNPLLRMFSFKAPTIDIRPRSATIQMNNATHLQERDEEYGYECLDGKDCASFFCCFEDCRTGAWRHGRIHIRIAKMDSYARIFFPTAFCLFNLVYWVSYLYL
Nature of the assay: two-electrode voltage clamp in Xenopus oocytes; potentiation of currents induced by […] GABA. It counts as cell-based.

Assay [2] has as its target T2, rat ASIC1a (rASIC1a) (Rattus norvegicus, UniProt P55926).
T2 construct: gene Asic1; homomeric rat ASIC1a expressed in Xenopus laevis oocytes
T2 sequence (P55926 1-526): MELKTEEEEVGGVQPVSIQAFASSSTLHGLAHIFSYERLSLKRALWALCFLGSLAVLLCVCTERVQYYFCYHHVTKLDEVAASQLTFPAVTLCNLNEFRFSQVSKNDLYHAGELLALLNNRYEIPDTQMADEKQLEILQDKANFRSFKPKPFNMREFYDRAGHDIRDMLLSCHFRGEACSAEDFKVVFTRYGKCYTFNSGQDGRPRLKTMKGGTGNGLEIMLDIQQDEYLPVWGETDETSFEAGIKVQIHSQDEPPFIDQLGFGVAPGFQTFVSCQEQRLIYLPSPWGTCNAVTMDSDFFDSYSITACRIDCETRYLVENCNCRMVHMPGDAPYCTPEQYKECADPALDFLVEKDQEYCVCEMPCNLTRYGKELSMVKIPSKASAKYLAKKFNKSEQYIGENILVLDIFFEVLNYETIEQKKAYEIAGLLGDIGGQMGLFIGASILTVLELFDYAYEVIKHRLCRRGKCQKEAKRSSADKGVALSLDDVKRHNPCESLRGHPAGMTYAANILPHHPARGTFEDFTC
Description: two-electrode voltage clamp in Xenopus oocytes; inhibition of pH […].0-induced currents. It counts as cell-based. For orientation: Two-electrode voltage clamp holds a large cell at a set potential and records current.

For the compound `O=C(O)C[C@H](C(=O)O)[C@H](OC(=O)[C@@H]1C(C(=O)O[C@@H](C(=O)O)[C@@H](CC(=O)O)C(=O)O)=Cc2cc(O)c(O)cc2[C@H]1c1ccc(O)c(O)c1)C(=O)O` [sevanol], the EC50 in assay [1] came to 0.56 ± 0.04 µM. In assay [2], this compound returned an IC50 of 198 ± 19 µM.
